Reference: patent US11504367B2, “Compounds and methods for treating oxalate-related diseases” (OxaluRx, Inc., priority 2019, dated 2022)

The molecules below were run against recombinant full-length human hydroxyacid oxidase 1 (HAO1), the equivalents of hGOX (Homo sapiens (Human), UniProt Q9UJM8) (assay: In-vitro human glycolate oxidase (hGOX) assay (Amplex red fluorescence)). Conditions: 6 nM recombinant human GO, 85 μM glycolate, 10 min preincubation.
Type: biochemical
Description: The in-vitro glycolate oxidase assay was performed using recombinant full-length human hydroxyacid oxidase 1 (HAO1), the equivalents of hGOX. […] Purified HAO1 was dissolved in assay buffer consisting of 10 mM NaCl, 110 mM KCl, 2 mM MgCl2, 50 mM HEPES (pH 7.4), and 0.01% Triton™ X-100.
The plates were incubated for 10 min at room temperature, at which point Amplex red reagent (50 μM) was added.
The fluorescence intensity signal was measured on a VariosKan LUX instrument using an excitation of 560 nm and an emission of 590 nm. The IC50 values were calculated using Graphpad Prism. The fluorescence signal of wells containing only DMSO was defined as 100% GO activity, while the fluorescence signal without the glycolate substrate was defined as 0% GO activity.

Chain of recombinant full-length human hydroxyacid oxidase 1 (HAO1), the equivalents of hGOX (Q9UJM8 whole entry): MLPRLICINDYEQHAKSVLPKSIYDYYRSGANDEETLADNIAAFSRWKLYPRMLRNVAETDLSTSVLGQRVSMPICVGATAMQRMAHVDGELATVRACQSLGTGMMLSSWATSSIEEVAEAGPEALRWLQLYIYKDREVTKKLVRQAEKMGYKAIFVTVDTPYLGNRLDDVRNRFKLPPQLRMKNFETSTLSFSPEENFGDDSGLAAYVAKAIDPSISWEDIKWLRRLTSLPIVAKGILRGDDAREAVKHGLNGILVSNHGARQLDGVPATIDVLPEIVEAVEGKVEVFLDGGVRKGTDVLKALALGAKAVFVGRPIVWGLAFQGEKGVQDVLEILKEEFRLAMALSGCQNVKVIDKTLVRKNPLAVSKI

SMILES	IC50
O=C(O)c1nn[nH]c1Oc1ccc(C#Cc2ncc[nH]2)cc1 [Example 331, 5-(4-(2-(1H-Imidazol-2-yl)ethynyl)phenoxy)-1H-1,2,3-triazole-4-carboxylic Acid]	20 nM
O=C(O)c1nn[nH]c1Oc1ccc(C#Cc2nccs2)cc1 [Example 341, 5-(4-(2-(Thiazol-2-yl)ethynyl)phenoxy)-1H-1,2,3-triazole-4-carboxylic Acid]	28 nM
COc1cccc(C#Cc2cccc(Oc3[nH]nnc3C(=O)O)c2)c1 [Example 287, 5-(3-(2-(3-Methoxyphenyl)ethynyl)phenoxy)-1H-1,2,3-triazole-4-carboxylic Acid]	4 nM
CC(C)CC#Cc1cccc([S+]([O-])c2[nH]nnc2C(=O)O)c1 (stereo not drawn) [Example 374, 5-(3-(4-Methylpent-1-ynyl)phenylsulfinyl)-1H-1,2,3-triazole-4-carboxylic Acid]	> 1000 nM
Cn1ccc(C#Cc2cccc(Oc3[nH]nnc3C(=O)O)c2)cc1=O [Example 257, 4-(3-((1-Methyl-2-oxo-1,2-dihydropyridin-4-yl)ethynyl)phenoxy)-1H-1,2,3-triazole-5-carboxylic Acid]	1 nM
O=C(O)c1nn[nH]c1Nc1cccc(C#CCC2CC2)c1 [Example 363, 5-(3-(3-Cyclopropylprop-1-ynyl)phenylamino)-1H-1,2,3-triazole-4-carboxylic Acid]	110 nM
O=C(O)c1nn[nH]c1Oc1ccc(C#Cc2cccc3cn[nH]c23)cc1 [Example 323, 5-(4-(2-(1H-Indazol-7-yl)ethynyl)phenoxy)-1H-1,2,3-triazole-4-carboxylic Acid]	5 nM
O=C(O)c1nn[nH]c1Oc1cc(C#Cc2ccccc2)ccc1F [Example 261, 5-(2-Fluoro-5-(2-phenylethynyl)phenoxy)-1H-1,2,3-triazole-4-carboxylic Acid]	4 nM
O=C(O)c1nn[nH]c1Oc1ccc(F)c(C#Cc2ccccc2)c1 [Example 259, 5-(4-Fluoro-3-(2-phenylethynyl)phenoxy)-1H-1,2,3-triazole-4-carboxylic Acid]	1 nM
CC(C)(O)C#Cc1cccc(Oc2[nH]nnc2C(=O)O)c1 [Example 215, 5-(3-(3-Hydroxy-3-methylbut-1-ynyl)phenoxy)-1H-1,2,3-triazole-4-carboxylic Acid]	48 nM
N#CCCC#Cc1cccc(Oc2[nH]nnc2C(=O)O)c1 [Example 350, 5-(3-(4-Cyanobut-1-ynyl)phenoxy)-1H-1,2,3-triazole-4-carboxylic Acid]	10 nM
CCOC(=O)c1nn[nH]c1Oc1cccc(C#CCC(C)(C)F)c1 [Example 377, Ethyl 5-(3-(4-fluoro-4-methylpent-1-ynyl)phenoxy)-1H-1,2,3-triazole-4-carboxylate]	> 1000 nM
O=C(O)c1nn[nH]c1Oc1cccc(C#Cc2cn[nH]c2)c1 [Example 320, 5-(3-(2-(1H-Pyrazol-4-yl)ethynyl)phenoxy)-1H-1,2,3-triazole-4-carboxylic Acid]	6 nM
O=C(O)c1nn[nH]c1Oc1cccc(C#Cc2ncccn2)c1 [Example 165, 5-(3-(2-(Pyrimidin-2-yl)ethynyl)phenoxy)-1H-1,2,3-triazole-4-carboxylic Acid]	6 nM
O=C(O)c1nn[nH]c1Oc1ccc(C#Cc2ncccn2)cc1 [Example 336, 5-(4-(2-(Pyrimidin-2-yl)ethynyl)phenoxy)-1H-1,2,3-triazole-4-carboxylic Acid]	25 nM
CCOC(=O)c1nn[nH]c1Oc1cccc(C#CCC(C)(C)C)c1 [Example 371, Ethyl 5-(3-(4,4-dimethylpent-1-ynyl)phenoxy)-1H-1,2,3-triazole-4-carboxylate]	> 1000 nM
CCOC(=O)c1nn[nH]c1Oc1cccc(C#CCC2CC2)c1 [Example 357, Ethyl 5-(3-(3-cyclopropylprop-1-ynyl)phenoxy)-1H-1,2,3-triazole-4-carboxylate]	> 1000 nM
O=C(O)c1nn[nH]c1Oc1ccc(C#CC(F)(F)F)cc1 [Example 335, 5-(4-(3,3,3-Trifluoroprop-1-ynyl)phenoxy)-1H-1,2,3-triazole-4-carboxylic Acid]	23 nM
Cn1ncc2c(C#Cc3ccc(Oc4[nH]nnc4C(=O)O)cc3)cccc21 [Example 314, 5-(4-(2-(1-Methyl-1H-indazol-4-yl)ethynyl)phenoxy)-1H-1,2,3-triazole-4-carboxylic Acid]	3 nM
O=C(O)c1nn[nH]c1Oc1ccc(C#Cc2cccc(Cl)c2)cc1 [Example 291, 5-(4-(2-(3-Chlorophenyl)ethynyl)phenoxy)-1H-1,2,3-triazole-4-carboxylic Acid]	0.3 nM
CS(=O)(=O)c1cccc(C#Cc2ccc(Oc3[nH]nnc3C(=O)O)cc2F)c1 [Example 273, 5-(3-Fluoro-4-(2-(3-(methylsulfonyl)phenyl)ethynyl)phenoxy)-1H-1,2,3-triazole-4-carboxylic Acid]	2 nM

SMILES	IC50
O=C(O)c1nn[nH]c1Oc1cccc(C#Cc2ccc(Cl)cc2)c1 [Example 292, 5-(3-(2-(4-Chlorophenyl)ethynyl)phenoxy)-1H-1,2,3-triazole-4-carboxylic Acid]	2 nM
Cn1ncc2ccc(C#Cc3cccc(Oc4[nH]nnc4C(=O)O)c3)cc21 [Example 319, 5-(3-(2-(1-Methyl-1H-indazol-6-yl)ethynyl)phenoxy)-1H-1,2,3-triazole-4-carboxylic Acid]	2 nM
O=C(O)c1nn[nH]c1Oc1ccc(C#Cc2cccc(F)c2)cc1 [Example 278, 5-(4-(2-(3-Fluorophenyl)ethynyl)phenoxy)-1H-1,2,3-triazole-4-carboxylic Acid]	1 nM
O=C(O)c1nn[nH]c1Oc1cccc(C#Cc2ccc3cn[nH]c3c2)c1 [Example 330, 5-(3-(2-(1H-Indazol-6-yl)ethynyl)phenoxy)-1H-1,2,3-triazole-4-carboxylic Acid]	1 nM
CC(C)(F)CC#Cc1cccc(Oc2[nH]nnc2C(=O)O)c1 [Example 378, 5-(3-(4-Fluoro-4-methylpent-1-ynyl)phenoxy)-1H-1,2,3-triazole-4-carboxylic Acid]	40 nM
CS(=O)(=O)c1ccc(Oc2[nH]nnc2C(=O)O)cc1C#Cc1ccccc1 [Example 149, 5-(4-(Methylsulfonyl)-3-(2-phenylethynyl)phenoxy)-1H-1,2,3-triazole-4-carboxylic Acid]	14 nM
O=C(O)c1nn[nH]c1Oc1cccc(C#Cc2cccc(F)c2)c1 [Example 279, 5-(3-(2-(3-Fluorophenyl)ethynyl)phenoxy)-1H-1,2,3-triazole-4-carboxylic Acid]	2 nM
CC#Cc1ccc(Oc2[nH]nnc2C(=O)O)cc1 [Example 5, 5-(4-(Prop-1-ynyl)phenoxy)-1H-1,2,3-triazole-4-carboxylic Acid]	12 nM
Cn1nccc1C#Cc1cccc(Oc2[nH]nnc2C(=O)O)c1 [Example 322, 5-(3-(2-(1-Methyl-1H-pyrazol-5-yl)ethynyl)phenoxy)-1H-1,2,3-triazole-4-carboxylic Acid]	4 nM
CS(=O)(=O)c1cccc(C#Cc2cc(Oc3[nH]nnc3C(=O)O)ccc2F)c1 [Example 267, 5-(4-Fluoro-3-(2-(3-(methylsulfonyl)phenyl)ethynyl)phenoxy)-1H-1,2,3-triazole-4-carboxylic Acid]	2 nM
C#Cc1ccc(Oc2[nH]nnc2C(=O)O)cc1 [Example 2, 5-(4-Ethynylphenoxy)-1H-1,2,3-triazole-4-carboxylic Acid]	90 nM
CS(=O)(=O)c1ccc(C#Cc2ccc(Oc3[nH]nnc3C(=O)O)cc2F)cc1 [Example 272, 5-(3-Fluoro-4-(2-(4-(methylsulfonyl)phenyl)ethynyl)phenoxy)-1H-1,2,3-triazole-4-carboxylic Acid]	2 nM
O=C(O)c1nn[nH]c1Oc1ccc(C#Cc2cccnc2)cc1 [Example 309, 5-(4-(2-(Pyridin-3-yl)ethynyl)phenoxy)-1H-1,2,3-triazole-4-carboxylic Acid]	3 nM
O=C(O)c1nn[nH]c1Oc1cccc(C#Cc2ccccn2)c1 [Example 311, 5-(3-(2-(Pyridin-2-yl)ethynyl)phenoxy)-1H-1,2,3-triazole-4-carboxylic Acid]	3 nM
O=C(O)c1nn[nH]c1Oc1ccc(C#CC2CCCCC2)cc1 [Example 36, 5-(4-(2-Cyclohexylethynyl)phenoxy)-1H-1,2,3-triazole-4-carboxylic Acid]	9 nM
O=C(O)c1nn[nH]c1Oc1ccc(Cl)c(C#Cc2ccccc2)c1 [Example 147, 5-(4-Chloro-3-(2-phenylethynyl)phenoxy)-1H-1,2,3-triazole-4-carboxylic Acid]	4 nM
CS(=O)(=O)c1cccc(C#Cc2cccc(Oc3[nH]nnc3C(=O)O)c2)c1 [Example 191, 5-(3-(2-(3-(Methylsulfonyl)phenyl)ethynyl)phenoxy)-1H-1,2,3-triazole-4-carboxylic Acid]	6 nM
O=C(O)c1nn[nH]c1Oc1cccc(C#Cc2ccc(F)cc2)c1 [Example 289, 5-(3-(2-(4-Fluorophenyl)ethynyl)phenoxy)-1H-1,2,3-triazole-4-carboxylic Acid]	1 nM
CS(=O)(=O)c1cccc(C#Cc2cc(F)cc(Oc3[nH]nnc3C(=O)O)c2)c1 [Example 275, 5-(3-Fluoro-5-(2-(3-(methylsulfonyl)phenyl)ethynyl)phenoxy)-1H-1,2,3-triazole-4-carboxylic Acid]	3 nM
Cn1cc(Oc2[nH]nnc2C(=O)O)cc(C#CCC2CC2)c1=O [Example 368, 5-(5-(3-Cyclopropylprop-1-ynyl)-1,6-dihydro-1-methyl-6-oxopyridin-3-yloxy)-1H-1,2,3-triazole-4-carboxylic Acid]	> 1000 nM
O=C(O)c1nn[nH]c1Oc1ccc(C#CCc2ccccc2)cc1 [Example 348, 5-(4-(3-Phenylprop-1-ynyl)phenoxy)-1H-1,2,3-triazole-4-carboxylic Acid]	5 nM
